{"source": "paper PMC10166914", "about": "“GTN057, a komaroviquinone derivative, induced myeloma cells' death in vivo and inhibited c‐MET tyrosine kinase” (Cancer Medicine, 2023)", "key": {"[1]": {"test_system": "MUM24 cells", "assay": "ROS production and growth recovery by anti-oxidants", "assay_type": "cell-based, human", "description": "First, 2 × 10^5 cells/mL of MUM24 cells were incubated with or without 6 mM NAC (N‐acetyl cysteine; Sigma‐Aldrich) or 3 mM GSH (glutathione; Sigma‐Aldrich) for 2 h. Next, 20 μM GTN057 was added and cultured for an additional 72 h. Cells were incubated with 1 μM CM‐H2DCFDA (i.e., 5‐(and‐6)‐chloromethyl‐2′, 7′‐dichlorodihydrofluorescein diacetate) for 30 min. For the evaluation of ROS production, the cells were stained with CM‐H2DCFDA and analyzed using a FACS (fluorescence‐activated cell sorting) system (LSR II, BD Biosciences). For the assessment of growth recovery by NAC or GSH, 2 × 10^5 cells/mL of MUM24 cells were also treated with 20 μM GTN057 in the presence or absence of 6 mM NAC or 3 mM GSH as described above. We conducted a trypan blue exclusion test to determine the numbers of viable cells."}, "[2]": {"test_system": "HGF/c-MET signaling", "assay": "Western blot, HGF-stimulated signaling in KMS11, KMS21 and KMS34 cells", "assay_type": "cell-based, human", "conditions": "20 μM GTN057", "description": "MM cells (4 × 10^5 cells/mL) were incubated with 0–20 μM GTN057 for 12 h. The cells were then co‐cultured with 0–50 ng/mL of hepatocyte growth factor (HGF) (PeproTech, London) or 0–20 ng/mL of fibroblast growth factor (FGF)‐2 (PeproTech) with 1 unit/mL of heparin in RPMI containing 4% dialyzed FCS (Gibco) for the KMS11 and KMS34 cells and 10% dialyzed FCS for the KMS21 cells for 15 min at RT (room temperature). A549 cells were co‐cultured with 0–50 ng/mL of epidermal growth factor (EGF) (PeproTech) in Eagle's MEM containing 4% dialyzed FCS for 15 min at RT. […]\nThe protein concentrations were measured using a BCA Protein Assay Kit (Thermo Fisher Scientific). […]\nAntibodies against phospho‐STAT3 (Tyr705), phospho‐Akt (Ser473), p44/42 MAPK (Erk 1/2), phosphor‐p44/42 MAPK (Thr202/Tyr 204), and phospho‐c‐Met (Tyr1234/1235) (all from Cell Signaling Technology, Danvers, MA) or STAT3, Akt, c‐Met, and β‐actin (all from Santa Cruz Biotechnology, Santa Cruz, CA) or phospho‐c‐Met (Tyr1230/1234/1235) (Biosource, Camarillo, CA for KMS34 cells in Figure 3A) were each used at 1:1000 dilution. […] The Western blotting signals were detected by enhanced ECL chemiluminescence (Amersham). The signal intensity of each band was quantified densitometrically with ImageJ software (ver. 1.48, U.S. National Institutes of Health)."}, "[3]": {"test_system": "KMS11 xenografted tumor", "assay": "Histopathologic and immunohistochemical examination of xenografts", "assay_type": "in vivo, ICR/SCID mice", "conditions": "GTN057-treated KMS11 xenografts, immunohistochemistry", "text": "Xenografts were excised and fixed with 10% formalin and embedded in paraffin. Five‐μm sliced sections were used for hematoxylin and eosin (H&E) staining. For the immunohistochemical evaluation, we used anti‐human cleaved poly(ADP‐ribose), polymerase (PARP), polyclonal antibody (pAb) (Cell Signaling Technology Japan, Tokyo), anti‐human Ki‐67 monoclonal antibody (mAb) (clone MIB‐1) (Dako Japan, Tokyo), anti‐human cleaved caspase‐3 (Asp175), pAb (Cell Signaling Technology Japan), and anti‐human Factor VIII mAb (Atlas Antibodies)."}, "[4]": {"test_system": "CD138-positive cells obtained from MM patients' bone marrow", "assay": "Growth inhibition of patient cells, MTT assay", "assay_type": "cell-based", "conditions": "Homo sapiens, 48 h", "text": "Mononuclear cells were obtained from the bone marrow aspirates of MM patients treated at Tokyo Saiseikai Central Hospital, by centrifugation with Lymphoprep™ (Axis‐Shield). The mononuclear cells were then labeled with CD138 MicroBeads from Miltenyi Biotec (Bergisch Gladbach). The labeled CD138‐positive cells were magnetically purified using MACS Columns (Miltenyi Biotec).\nFor the 3‐[…] (MTT) assay (Roche Diagnostics), 6 × 10^4 cells/mL of CD138‐positive bone marrow cells were cultured in 96‐well plates in triplicate with various concentrations of GTN057 for 48 h. The cell viability was examined by MTT dye absorbance in accord with the manufacturer's manual. We obtained the IC50 values by drawing approximate straight lines in semilogarithmic growth curves, using Microsoft Excel."}}}
{"compound": "COc1c(OC(C)=O)c2c(c(O)c1C(C)C)C(=O)CC1C(C)(C)CCC[C@]1(O)C2", "note": "(some centres unmarked) [GTN057]", "values": [{"measurement": "Abrogation of growth inhibition and apoptosis by anti-oxidants", "setting": "[1]; 20 μM GTN057 with 6 mM NAC or 3 mM GSH", "value": "not significantly abrogated"}, {"measurement": "ROS production", "setting": "[1]; 20 μM, MM cells, CM-H2DCFDA, FACS", "value": "produced ROS"}, {"measurement": "Phosphorylation of ERK1/2, STAT3 and Akt1", "setting": "[2]; KMS11, KMS21, KMS34 cells, 50 ng/mL HGF", "value": "diminished"}, {"measurement": "Phosphorylation at y1234 y1235 of c-MET", "setting": "[2]; co-culture with HGF", "value": "abolished"}, {"measurement": "Number of Factor VIII-positive vessel cells", "setting": "[3]", "value": "decreased"}, {"measurement": "Numbers of cleaved-caspase-3-positive and PARP-positive cells", "setting": "[3]", "value": "significantly increased"}, {"measurement": "Staining for cell proliferation marker MIB-1/Ki67", "setting": "[3]", "value": "weakened"}, {"measurement": "IC50", "setting": "[4]; Patient 1 CD138+ cells", "value": 12.1, "unit": "µM"}, {"measurement": "IC50", "setting": "[4]; Patient 2 CD138+ cells", "value": 16.3, "unit": "µM"}, {"measurement": "IC50", "setting": "[4]; Patient 3 CD138+ cells", "value": 26.3, "unit": "µM"}, {"measurement": "IC50", "setting": "[4]; Patient 4 CD138+ cells", "value": 18.7, "unit": "µM"}]}
